This is an account of results in patent US20250270180A1, “MEK INHIBITORS AND THERAPEUTIC USES THEREOF” (Immuneering Corporation, priority 2020, published 2025).

A short description of data set [1]: Microsome stability, human. Type of data set: in vitro ADME. The settings on record: microsomes, 2 μM.
The nature of data set [2]: Microsome stability, beagle dog. Type of data set: in vitro ADME. The settings on record: microsomes, 2 μM.
Data set [3] in a line: Plasma stability, beagle dog. The format is in vitro ADME. The settings on record: 2 μM.
Data set [4] in a line: Plasma stability, CD-1 mouse. The format is in vitro ADME. The settings on record: 2 μM.
Data set [5] concerns A549 pMEK:tMEK (CRAF). Briefly: CRAF-bypass pMEK:tMEK, A549. The format is cell-based. How it is done:
Materials and Methods: A549 or A375 cells were seeded in 6-well plates at an appropriate seeding density on day 0. On day 2 or 3, after checking the health and confluency of cells, the media was aspirated and replaced with 1 mL media containing a predetermined concentration of compound and incubated for 2 hours. After 2 hours, the media was aspirated, and the cells washed 2 times with cold PBS. Cells were lysed on ice, with 50 uL 1×CST lysis buffer+1 mM PMSF for 5 minutes. After 5 minutes, cells were removed using a scraper and transferred to cold 1.5 mL tubes, and centrifuged for 10 min, 4° C., 14,000×g. Supernatant was gently removed and snap frozen in liquid nitrogen. Protein concentration of the lysate was determined using Bradford Reagent (analyzed using SpectraMax M2E) and diluted to 1 mg/mL or pERK or 1.5 mg/mL for pMEK analysis. Cell lysates were then analyzed for phosphor-ERK/total-ERK levels on a Jess system (ProteinSimple; Cat #JS3346) using the following antibodies: tERK1/2 (CST 4696; 1:50) and pERK1/2 (CST 4377; 1:50). […]
A549 or […] cells were treated in duplicate for two hours with compounds at varying concentrations. […] After storage, the lysate was quantified with the Bradford assay. Before the lysates were prepared to run on the Jess, the lysates were diluted to 1 mg/mL for pERK analysis and 1.5 mg/mL pMEK analysis using quantitative Western blotting. […]

A short description of data set [6]: Pharmacokinetics, single dose, 2-hour tissue levels in Colon26 tumor bearing mice. Type of data set: in vivo. The settings on record: female, athymic BALB/c nude or BALB/c, mouse, po, single dose 100 mg/kg p.o., 2-hour post dose. How it is done:
Female mice (either athymic BALC/c nude, or BALB/c mice) were inoculated with a single subcutaneous injection of 0.2 ml of mouse Colon-26 cell suspension (1×10^5 cells per animal) in the inguinal region. Colon26 (C26) tumor bearing mice received a single dose (3 mice/treatment) of vehicle (10% DMSO/90% [20% SBE-β-CD in saline], pH 5) containing compounds at 100 mg/kg by gavage (p.o.) and 2-hour post dose humanely euthanized.
Blood was obtained through cardiac puncture into K+EDTA tubes, mixed by inversion and centrifuged to obtain the plasma. Tissues were excised, cleaned of surrounding tissues. All samples immediately snap frozen in liquid N2 prior to LC-MS/MS analysis (using Waters HSS T3 2.1×50 mm (1.8 um) LC column, and an API-6500 Electrospray MS unit).

The target in data set [7] is T1, CYP450 2B6 (Homo sapiens, UniProt P20813).
T1 sequence (P20813 1-491): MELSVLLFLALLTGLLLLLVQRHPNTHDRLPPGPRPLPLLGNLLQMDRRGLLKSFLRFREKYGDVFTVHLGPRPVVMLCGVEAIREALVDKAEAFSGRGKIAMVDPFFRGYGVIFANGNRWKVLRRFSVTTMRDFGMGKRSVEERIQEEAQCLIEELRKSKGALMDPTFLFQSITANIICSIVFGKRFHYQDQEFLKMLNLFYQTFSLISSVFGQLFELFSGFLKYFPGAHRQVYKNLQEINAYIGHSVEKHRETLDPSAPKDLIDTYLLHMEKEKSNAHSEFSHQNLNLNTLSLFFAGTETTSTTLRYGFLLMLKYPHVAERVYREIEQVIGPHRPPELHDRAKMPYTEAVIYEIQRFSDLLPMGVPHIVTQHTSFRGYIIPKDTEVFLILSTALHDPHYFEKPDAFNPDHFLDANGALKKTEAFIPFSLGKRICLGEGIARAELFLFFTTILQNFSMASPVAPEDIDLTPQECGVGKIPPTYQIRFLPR
Briefly: CYP450 panel, 2B6. The settings on record: 10 μM; substrate bupropion.

The target of data set [8] is T2, CYP450 2C8 (Homo sapiens, UniProt P10632).
T2 sequence (P10632 1-490): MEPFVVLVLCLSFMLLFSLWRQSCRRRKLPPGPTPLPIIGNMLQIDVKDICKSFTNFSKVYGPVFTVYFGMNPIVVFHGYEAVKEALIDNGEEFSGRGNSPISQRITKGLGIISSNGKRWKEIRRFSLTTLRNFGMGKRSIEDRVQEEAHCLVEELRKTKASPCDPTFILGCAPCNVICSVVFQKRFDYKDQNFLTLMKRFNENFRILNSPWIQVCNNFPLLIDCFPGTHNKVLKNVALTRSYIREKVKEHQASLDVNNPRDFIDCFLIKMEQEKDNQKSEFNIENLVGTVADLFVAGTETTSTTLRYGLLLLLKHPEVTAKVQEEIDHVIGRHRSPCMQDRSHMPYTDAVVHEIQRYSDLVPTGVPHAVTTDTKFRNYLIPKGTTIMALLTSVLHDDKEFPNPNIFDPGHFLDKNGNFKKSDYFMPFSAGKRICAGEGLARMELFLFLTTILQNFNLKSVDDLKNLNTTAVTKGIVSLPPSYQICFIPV
The experiment in a line: CYP450 panel, 2C8. As to conditions: 10 μM; substrate amodiaquine.

Data set [9] deals with CYP450 2C9 (Homo sapiens, UniProt P11712). Briefly: CYP450 panel, 2C9. As to conditions: 10 μM; substrate Diclofenac.
Data set [10] deals with CYP450 2D6 (Homo sapiens, UniProt P10635). Briefly: CYP450 panel, 2D6. The settings on record: 10 μM; substrate dextromethophan.
The nature of data set [11]: Absorption & efflux: Caco-2 permeability. The settings on record: human.

Read-outs that look alike come from different tables or passages of the source.

Chain of CYP450 2D6 (P10635 whole entry): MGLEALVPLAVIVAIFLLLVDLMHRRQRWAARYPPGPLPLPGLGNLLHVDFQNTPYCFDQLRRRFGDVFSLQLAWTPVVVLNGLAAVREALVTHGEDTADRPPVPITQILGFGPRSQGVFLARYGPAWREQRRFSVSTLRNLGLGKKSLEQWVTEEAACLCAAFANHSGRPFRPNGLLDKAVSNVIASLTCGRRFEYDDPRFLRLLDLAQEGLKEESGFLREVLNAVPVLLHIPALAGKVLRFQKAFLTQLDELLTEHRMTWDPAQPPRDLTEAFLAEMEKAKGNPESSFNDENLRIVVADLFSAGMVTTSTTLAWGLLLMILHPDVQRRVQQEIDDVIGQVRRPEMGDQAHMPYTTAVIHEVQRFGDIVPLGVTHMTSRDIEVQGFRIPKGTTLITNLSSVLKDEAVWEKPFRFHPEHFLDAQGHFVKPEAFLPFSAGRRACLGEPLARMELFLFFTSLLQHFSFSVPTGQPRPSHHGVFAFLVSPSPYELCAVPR
Chain of CYP450 2C9 (P11712 whole entry): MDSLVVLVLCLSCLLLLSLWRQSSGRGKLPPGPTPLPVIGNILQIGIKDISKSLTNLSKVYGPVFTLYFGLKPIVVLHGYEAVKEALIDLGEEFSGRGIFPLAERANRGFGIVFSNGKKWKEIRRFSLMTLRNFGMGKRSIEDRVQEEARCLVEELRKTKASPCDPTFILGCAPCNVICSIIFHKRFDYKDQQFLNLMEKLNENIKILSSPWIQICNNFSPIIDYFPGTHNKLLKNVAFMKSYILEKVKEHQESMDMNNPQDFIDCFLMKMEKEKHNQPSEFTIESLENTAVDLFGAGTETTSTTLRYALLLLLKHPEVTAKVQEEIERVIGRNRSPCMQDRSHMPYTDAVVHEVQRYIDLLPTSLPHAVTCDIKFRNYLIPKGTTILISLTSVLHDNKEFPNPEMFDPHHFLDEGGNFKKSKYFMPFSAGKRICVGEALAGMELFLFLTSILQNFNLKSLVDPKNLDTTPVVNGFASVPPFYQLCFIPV

As a reminder, the Papp B→A is the apparent permeability from the basolateral to the apical side of a cell layer. For orientation: efflux ratio means a quotient of directional permeabilities that is used to spot active efflux. The term Papp A→B denotes the apparent permeability from the apical to the basolateral side of a cell layer. The low end stands for slow passage, the high end for fast passage. Take `CNS(=O)(=O)Nc1cccc(Cc2c(CN(C)C)c3ccc(OC(=O)N(C)C)cc3oc2=O)c1F` [Compound 9]: in data set [1], the “Human (% Reamining @1 hour)” value turned out to be 51.7%. The “Beagle Dog (% Reamining @1 hour)” value in data set [2] was 76.5%. Also, the “Beagle Dog (% Reamining @2 hour)” value in data set [3] turned out to be 96.8%. The “CD-1 Mouse (% Reamining @2 hour)” value in data set [4] is listed as 90.6%. Moreover, the “CRAF A549 pMEK:tMEK [100 nM; 2 hr]” value in [5] was determined as 0.47. In addition, the concentration at 2 h stood at 1260 ng/g in data set [6] (liver, read-out: Liver); 363 ng/g in data set [6] (muscle, read-out: Muscle); 407 ng/mL in [6] (plasma, read-out: Plasma); 1350 ng/g in data set [6] (tumor, read-out: Tumor). For the same compound, the “2B6*” value in data set [7] came out at 14.8. Also, the “2C8*” value in data set [8] was 4.0. For the same compound, in data set [9], the “2C9*” value worked out at 6.8. The “2D6*” value in [10] is given as −3.7. For the same compound, the basolateral-to-apical permeability (Papp B→A) at 2 h, 10 μM in [11] stood at 21 ×10⁻⁶ cm/s. The efflux ratio at 2 h, 10 μM in data set [11] is 1.62. The Papp A→B at 2 h, 10 μM in data set [11] (Caco-2, A-B Permeability Ranking, 10 μM, 2 hrs) is over 1 ×10⁻⁶ cm/s; in [11] (Caco-2, Mean Papp A-B (10^−6 cm/s), 10 μM, 2 hrs), 13 ×10⁻⁶ cm/s.

For the compound `Cn1cnc2c(F)c(Nc3ccc(Br)cc3Cl)c(C(=O)NOCCO)cc21` [Reference 1, Selumetinib, reference compound], the “Human (% Reamining @1 hour)” value in [1] is recorded as 75.8%. Also, the “Beagle Dog (% Reamining @1 hour)” value in data set [2] is recorded as 97.5%. The “Beagle Dog (% Reamining @2 hour)” value in data set [3] is 100.4%. Besides, the “CD-1 Mouse (% Reamining @2 hour)” value in data set [4] came to 104.8%. In addition, the “2B6*” value in data set [7] is reported as 30.2. For the same compound, the “2C8*” value in data set [8] is 18.9. Further, the “2C9*” value in data set [9] is 14.1. Besides, the “2D6*” value in data set [10] came out at 5.0. In data set [11], this compound gave a Papp A→B at 2 h, 10 μM of over 1 ×10⁻⁶ cm/s.

Take `CNS(=O)(=O)Nc1nccc(Cc2c(C)c3ccc(Oc4ncccn4)cc3oc2=O)c1F` [Reference 2, reference compound]: in [1], the “Human (% Reamining @1 hour)” value was 107.1%. Besides, in data set [2], the “Beagle Dog (% Reamining @1 hour)” value is recorded as 111.6%. Moreover, the “Beagle Dog (% Reamining @2 hour)” value in data set [3] is 99.8%. For the same compound, the “CD-1 Mouse (% Reamining @2 hour)” value in data set [4] was determined as 92.9%. For the same compound, the concentration at 2 h in [6] (liver, read-out: Liver) is 1990 ng/g; in data set [6] (muscle, read-out: Muscle) it was 550 ng/g; in data set [6] (plasma, read-out: Plasma) it was 5670 ng/mL; in data set [6] (tumor, read-out: Tumor), 819 ng/g. In addition, the “2D6*” value in data set [10] is listed as 3.4. The Papp A→B at 2 h, 10 μM in data set [11] is over 1 ×10⁻⁶ cm/s.
